In one assay the target is T1, Monoglyceride lipase (Homo sapiens, UniProt Q99685).
T1 sequence (Q99685 whole entry): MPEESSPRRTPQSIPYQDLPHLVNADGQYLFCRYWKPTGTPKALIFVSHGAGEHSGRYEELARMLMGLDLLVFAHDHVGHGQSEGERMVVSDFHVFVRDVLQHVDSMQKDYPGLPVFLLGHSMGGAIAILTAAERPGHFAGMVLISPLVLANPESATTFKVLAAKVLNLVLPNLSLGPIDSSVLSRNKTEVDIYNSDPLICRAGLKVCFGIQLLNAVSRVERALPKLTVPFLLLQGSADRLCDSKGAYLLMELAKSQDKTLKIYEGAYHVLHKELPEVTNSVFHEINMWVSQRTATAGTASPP
Put plainly: Inhibition of human MAGL using 4-Nitrophenylacetate as substrate.

The subject of a further assay is EKVX. Put plainly: Growth inhibition of human EKVX cells at 10 uM incubated for 48 hrs by sulforhodamine B assay relative to control. Particulars: read-out: GI. It counts as functional. In general terms: The SRB assay estimates cell density from bound dye.
The subject of the next assay is NCI-H226. Put plainly: Growth inhibition of human NCI-H226 cells at 10 uM incubated for 48 hrs by sulforhodamine B assay relative to control. Particulars: read-out: GI. It counts as functional.
A further assay deals with NCI-H322M. Put plainly: Growth inhibition of human NCI-H322M cells at 10 uM incubated for 48 hrs by sulforhodamine B assay relative to control. The format is functional. Conditions: read-out: GI.
In another assay the test system is NCI-H460. Put plainly: Growth inhibition of human NCI-H460 cells at 10 uM incubated for 48 hrs by sulforhodamine B assay relative to control. It counts as functional. Particulars: read-out: GI.
A further assay has as its system COLO 205. Put plainly: Growth inhibition of human COLO 205 cells at 10 uM incubated for 48 hrs by sulforhodamine B assay relative to control. It counts as functional. Particulars: read-out: GI.
In the next assay the test system is SW-620. Put plainly: Growth inhibition of human SW-620 cells at 10 uM incubated for 48 hrs by sulforhodamine B assay relative to control. It counts as functional. Particulars: read-out: GI.
Another assay relates to Malme-3M. Put plainly: Growth inhibition of human Malme-3M cells at 10 uM incubated for 48 hrs by sulforhodamine B assay relative to control. The format is functional. Particulars: read-out: GI.
The subject of another assay is SK-MEL-2. Put plainly: Growth inhibition of human SK-MEL-2 cells at 10 uM incubated for 48 hrs by sulforhodamine B assay relative to control. The format is functional. Particulars: read-out: GI.
The subject of another assay is IGROV-1. Put plainly: Growth inhibition of human IGROV-1 cells at 10 uM incubated for 48 hrs by sulforhodamine B assay relative to control. Particulars: read-out: GI. The format is functional.
A further assay has as its system OVCAR-3. Put plainly: Growth inhibition of human OVCAR-3 cells at 10 uM incubated for 48 hrs by sulforhodamine B assay relative to control. The format is functional. Conditions: read-out: GI.
A further assay has as its system OVCAR-5. Put plainly: Growth inhibition of human OVCAR-5 cells at 10 uM incubated for 48 hrs by sulforhodamine B assay relative to control. Conditions: read-out: GI. It counts as functional.
The subject of the next assay is NCI/ADR-RES. Put plainly: Growth inhibition of human NCI/ADR-RES cells at 10 uM incubated for 48 hrs by sulforhodamine B assay relative to control. The format is functional. Conditions: read-out: GI.
For a further assay, the system named is 786-0. Put plainly: Growth inhibition of human 786-0 cells at 10 uM incubated for 48 hrs by sulforhodamine B assay relative to control. Conditions: read-out: GI. The format is functional.
The subject of a further assay is A498. Put plainly: Growth inhibition of human A498 cells at 10 uM incubated for 48 hrs by sulforhodamine B assay relative to control. It counts as functional. Conditions: read-out: GI.
In another assay the test system is CAKI-1. Put plainly: Growth inhibition of human CAKI-1 cells at 10 uM incubated for 48 hrs by sulforhodamine B assay relative to control. The format is functional. Particulars: read-out: GI.
For a further assay, the system named is Hs-578T. Put plainly: Growth inhibition of human Hs-578T cells at 10 uM incubated for 48 hrs by sulforhodamine B assay relative to control. The format is functional. Particulars: read-out: GI.

Take `O=C(CN1C(=O)C(=O)c2ccccc21)Nc1ccc(-c2nc3ccccc3s2)cc1`: on Monoglyceride lipase, the IC50 (usually the concentration needed to halve the response being measured) is more than 100 µM. The inhibition of growth at 10 µM in the assay on EKVX was 14.2%; in the assay on NCI-H226 it was 9.37%; in the assay on NCI-H322M, -0.03%; with NCI-H460, -2.87%; in the assay on COLO 205 it was 0.13%; in the assay on SW-620 it was -0.74%. In addition, the inhibition of growth at 10 µM is -2.34% in the assay on Malme-3M; 0.87% in the assay on SK-MEL-2; -0.62% with IGROV-1; 10.9% with OVCAR-3; -12.7% in the assay with OVCAR-5; -2.79% in the assay on NCI/ADR-RES. Further, the inhibition of growth at 10 µM was -6.97% with 786-0, 10.7% with A498, -1.81% with CAKI-1 and -14.2% in the assay on Hs-578T.
Consider `O=C(CN(c1ccccc1)c1ccccc1)Nc1ccc(-c2nc3ccccc3s2)cc1`, for which the IC50 on Monoglyceride lipase was more than 100 µM. In addition, the inhibition of growth at 10 µM in the assay with EKVX was -9.19%; in the assay on NCI-H226, -5.48%; in the assay with NCI-H322M, -4.73%; in the assay with NCI-H460, -0.29%; in the assay with COLO 205, -3.6%; in the assay on SW-620, -3.33%. Also, the inhibition of growth at 10 µM in the assay on Malme-3M is -3.98%; with SK-MEL-2, -0.42%; in the assay with IGROV-1, 4.71%; in the assay on OVCAR-3, -4.14%; in the assay with OVCAR-5, -6.47%; in the assay with NCI/ADR-RES, -9.25%. In addition, the inhibition of growth at 10 µM was -1.87% with 786-0, 6.91% with A498, 0.37% in the assay with CAKI-1 and 14.3% with Hs-578T.
In turn, `O=C(Cn1c2ccccc2c2ccccc21)Nc1ccc(-c2nc3ccccc3s2)cc1` showed an IC50 at Monoglyceride lipase of more than 100 µM. Also, the inhibition of growth at 10 µM is -3.36% in the assay on EKVX; 1.21% with NCI-H226; -5.2% with NCI-H322M; -1.93% in the assay with NCI-H460; -8.95% with COLO 205; -2.44% in the assay with SW-620. Further, the inhibition of growth at 10 µM with Malme-3M is 6.83%; in the assay with SK-MEL-2, -0.88%; in the assay with IGROV-1, 13.4%; in the assay with OVCAR-3 it was -4.48%; in the assay on OVCAR-5, 0.62%; in the assay with NCI/ADR-RES, -1.93%. Besides, the inhibition of growth at 10 µM in the assay with 786-0 was -1.17%; in the assay with A498, 9.51%; in the assay with CAKI-1, 1.03%; in the assay on Hs-578T, -14.2%.
